From patent US7932270B2 (Cytokinetics, Inc., priority 2006, dated 2011)

Molecular target: T1, chicken gizzard smooth muscle myosin subfragment-1 chemically crosslinked to cardiac or skeletal actin (Gallus gallus, UniProt P10587)
T1 construct: chicken gizzard smooth muscle myosin subfragment-1; from tissue; host or cells: chicken gizzard
Experiment: Smooth muscle myosin ATPase dose response assay (pyruvate kinase/horseradish peroxidase/pyruvate oxidase-coupled, amplex red fluorescence)
Format: biochemical
Settings: read-out: IC50 Arithmetic Mean
Procedure, shortened: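 Lead-optimization format: ATPase coupled via pyruvate kinase, pyruvate oxidase and peroxidase, pH 7.00 at 22° C, with 0.15 mM ATP, 100 mM KCl, 2 mM MgCl2, 2 mM phosphate and 0.1 mM amplex red (final). Crosslinked S1 titrated empirically for set hydrolysis rate; fluorescence (ex 480/em 615 nm) dose curves fit 4-parameter for IC50.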

T1 sequence (P02607 2-151): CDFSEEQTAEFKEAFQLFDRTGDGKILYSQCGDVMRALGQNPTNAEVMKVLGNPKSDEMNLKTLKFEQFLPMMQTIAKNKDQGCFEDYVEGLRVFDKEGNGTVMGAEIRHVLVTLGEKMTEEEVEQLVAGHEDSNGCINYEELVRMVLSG
T1 sequence (P10587 84-789): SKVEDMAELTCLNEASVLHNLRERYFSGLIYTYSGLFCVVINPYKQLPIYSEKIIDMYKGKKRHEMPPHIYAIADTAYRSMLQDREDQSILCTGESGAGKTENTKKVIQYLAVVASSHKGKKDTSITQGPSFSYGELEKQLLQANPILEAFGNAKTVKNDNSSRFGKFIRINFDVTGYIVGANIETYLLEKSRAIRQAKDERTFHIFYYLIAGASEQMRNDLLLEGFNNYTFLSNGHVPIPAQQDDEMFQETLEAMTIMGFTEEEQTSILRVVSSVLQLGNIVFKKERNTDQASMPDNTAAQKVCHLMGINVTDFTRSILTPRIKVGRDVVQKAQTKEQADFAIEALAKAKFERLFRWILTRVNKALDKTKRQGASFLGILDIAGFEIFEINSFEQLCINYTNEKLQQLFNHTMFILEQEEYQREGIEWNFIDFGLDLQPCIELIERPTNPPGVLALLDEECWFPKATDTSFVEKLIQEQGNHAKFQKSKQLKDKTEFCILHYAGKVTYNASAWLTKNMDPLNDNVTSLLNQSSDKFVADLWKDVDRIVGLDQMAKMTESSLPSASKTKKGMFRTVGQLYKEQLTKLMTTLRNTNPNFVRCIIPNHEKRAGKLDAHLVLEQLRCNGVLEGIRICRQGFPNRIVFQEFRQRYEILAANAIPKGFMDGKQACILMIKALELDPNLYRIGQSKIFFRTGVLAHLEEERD

Row | Compound | IC50 [nM]
1 | Cn1cc(-c2nc(NCCc3cccc(F)c3)c(C(=O)NCc3cccnc3CN)cc2C#N)cn1 [N-{[2-(aminomethyl)(3-pyridyl)]methyl}(5-cyano-2-{[2-(3-fluorophenyl)ethyl]amino}-6-(1-methylpyrazol-4-yl)(3-pyridyl))carboxamide] | 50
2 | N#Cc1cc(C(=O)NCc2cccnc2CN)c(NCCc2cccc(F)c2)nc1-c1cn[nH]c1 [N-{[2-(aminomethyl)(3-pyridyl)]methyl}(5-cyano-2-{[2-(3-fluorophenyl)ethyl]amino}-6-pyrazol-4-yl(3-pyridyl))carboxamide] | 58
3 | Cn1cc(-c2nc(NCCc3cccc(F)c3)c(C(=O)NCc3cccnc3CN)cc2F)cn1 [N-{[2-(aminomethyl)(3-pyridyl)]methyl}(5-fluoro-2-{[2-(3-fluorophenyl)ethyl]amino}-6-(1-methylpyrazol-4-yl)(3-pyridyl))carboxamide] | 12
4 | NCc1ncccc1CNC(=O)c1cc(F)c(-c2ccccn2)nc1NCCc1cccc(F)c1 [N-{[2-(aminomethyl)(3-pyridyl)]methyl}(5-fluoro-2-{[2-(3-fluorophenyl)ethyl]amino}-6-(2-pyridyl)(3-pyridyl))carboxamide] | 66
5 | NCc1ncccc1CNC(=O)c1cc(F)c(-c2cc[nH]n2)nc1NCCc1cccc(F)c1 [N-{[2-(aminomethyl)(3-pyridyl)]methyl}(5-fluoro-2-{[2-(3-fluorophenyl)ethyl]amino}-6-pyrazol-3-yl(3-pyridyl))carboxamide] | 14
6 | NCc1ncccc1CNC(=O)c1cc(F)c(-c2cn[nH]c2)nc1NCCc1cccc(F)c1 [N-{[2-(aminomethyl)(3-pyridyl)]methyl}(5-fluoro-2-{[2-(3-fluorophenyl)ethyl]amino}-6-pyrazol-4-yl(3-pyridyl))carboxamide] | 12
7 | N#Cc1ccccc1-c1ccc(C(=O)NCc2cccnc2CN)c(NCCc2cccc(F)c2)n1 [N-{[2-(aminomethyl)(3-pyridyl)]methyl}(6-(2-cyanophenyl)-2-{[2-(3-fluorophenyl)ethyl]amino}(3-pyridyl))carboxamide] | 6
8 | Cc1cc(C(=O)NCc2cccnc2CN)c(NCCc2cccc(F)c2)nc1-c1ccccc1C#N [N-{[2-(aminomethyl)(3-pyridyl)]methyl}(6-(2-cyanophenyl)-2-{[2-(3-fluorophenyl)ethyl]amino}-5-methyl(3-pyridyl))carboxamide] | 158
9 | N#Cc1ccccc1-c1nc(NCCc2cccc(F)c2)c(C(=O)NCc2cccnc2CN)cc1F [N-{[2-(aminomethyl)(3-pyridyl)]methyl}(6-(2-cyanophenyl)-5-fluoro-2-{[2-(3-fluorophenyl)ethyl]amino}(3-pyridyl))carboxamide] | 6
10 | NCc1ncccc1CNC(=O)c1ccc(-c2cn[nH]c2)nc1NCCc1ccccn1 [N-{[2-(aminomethyl)(3-pyridyl)]methyl}{6-pyrazol-4-yl-2-[(2-(2-pyridyl)ethyl)amino](3-pyridyl)}carboxamide] | 1240
11 | N#Cc1ccccc1-c1ccc(C(=O)NCc2ccccc2CN)c(NCCc2cccc(F)c2)n1 [N-{[2-(aminomethyl)phenyl]methyl}(6-(2-cyanophenyl)-2-{[2-(3-fluorophenyl)ethyl]amino}(3-pyridyl))carboxamide] | 24
12 | N#Cc1ccccc1-c1ccc(C(=O)NCc2ncccc2CN)c(NCCc2cccc(F)c2)n1 [N-{[3-(aminomethyl)(2-pyridyl)]methyl}(6-(2-cyanophenyl)-2-{[2-(3-fluorophenyl)ethyl]amino}(3-pyridyl))carboxamide] | 624
13 | N#Cc1ccccc1-c1ccc(C(=O)NCc2ccncc2CN)c(NCCc2cccc(F)c2)n1 [N-{[3-(aminomethyl)(4-pyridyl)]methyl}(6-(2-cyanophenyl)-2-{[2-(3-fluorophenyl)ethyl]amino}(3-pyridyl))carboxamide] | 56
14 | N#Cc1ccccc1-c1ccc(C(=O)NCC2CCCC(CN)C2)c(NCCc2cccc(F)c2)n1 (stereo not shown) [N-{[3-(aminomethyl)cyclohexyl]methyl}(6-(2-cyanophenyl)-2-{[2-(3-fluorophenyl)ethyl]amino}(3-pyridyl))carboxamide] | 352
15 | N#Cc1ccccc1-c1ccc(C(=O)NCc2cccc(CN)c2)c(NCCc2cccc(F)c2)n1 [N-{[3-(aminomethyl)phenyl]methyl}(6-(2-cyanophenyl)-2-{[2-(3-fluorophenyl)ethyl]amino}(3-pyridyl))carboxamide] | 12
16 | NCc1ccnc(CNC(=O)c2ccc(-c3ccccc3)nc2NCCc2cccc(F)c2)c1 [N-{[4-(aminomethyl)(2-pyridyl)]methyl}(2-{[2-(3-fluorophenyl)ethyl]amino}-6-phenyl(3-pyridyl))carboxamide] | 1210
17 | N#Cc1ccccc1-c1ccc(C(=O)NCc2cc(CN)ccn2)c(NCCc2cccc(F)c2)n1 [N-{[4-(aminomethyl)(2-pyridyl)]methyl}(6-(2-cyanophenyl)-2-{[2-(3-fluorophenyl)ethyl]amino}(3-pyridyl))carboxamide] | 598

Row | Compound | IC50 [nM]
18 | N#Cc1ccccc1-c1ccc(C(=O)NCc2cnccc2CN)c(NCCc2cccc(F)c2)n1 [N-{[4-(aminomethyl)(3-pyridyl)]methyl}(6-(2-cyanophenyl)-2-{[2-(3-fluorophenyl)ethyl]amino}(3-pyridyl))carboxamide] | 401
19 | N#Cc1ccccc1-c1ccc(C(=O)NCc2ccc(CN)cc2)c(NCCc2cccc(F)c2)n1 [N-{[4-(aminomethyl)phenyl]methyl}(6-(2-cyanophenyl)-2-{[2-(3-fluorophenyl)ethyl]amino}(3-pyridyl))carboxamide] | 277
20 | NCc1ccc(CNC(=O)c2ccc(-c3ccccc3)nc2NCCc2cccc(F)c2)nc1 [N-{[5-(aminomethyl)(2-pyridyl)]methyl}(2-{[2-(3-fluorophenyl)ethyl]amino}-6-phenyl(3-pyridyl))carboxamide] | 1060
21 | N#Cc1ccccc1-c1ccc(C(=O)NCc2ccc(CN)cn2)c(NCCc2cccc(F)c2)n1 [N-{[5-(aminomethyl)(2-pyridyl)]methyl}(6-(2-cyanophenyl)-2-{[2-(3-fluorophenyl)ethyl]amino}(3-pyridyl))carboxamide] | 515
22 | N#Cc1ccccc1-c1ccc(C(=O)NCc2cncc(CN)c2)c(NCCc2cccc(F)c2)n1 [N-{[5-(aminomethyl)(3-pyridyl)]methyl}(6-(2-cyanophenyl)-2-{[2-(3-fluorophenyl)ethyl]amino}(3-pyridyl))carboxamide] | 323
23 | NCCc1cccc(CNC(=O)c2ccc(-c3ccccc3)nc2NCCc2cccc(F)c2)n1 [N-{[6-(2-aminoethyl)(2-pyridyl)]methyl}(2-{[2-(3-fluorophenyl)ethyl]amino}-6-phenyl(3-pyridyl))carboxamide] | 24
24 | N#Cc1ccccc1-c1ccc(C(=O)NCc2cccc(CCN)n2)c(NCCc2cccc(F)c2)n1 [N-{[6-(2-aminoethyl)(2-pyridyl)]methyl}(6-(2-cyanophenyl)-2-{[2-(3-fluorophenyl)ethyl]amino}(3-pyridyl))carboxamide] | 11
25 | CC(=O)N1CCN(c2ccc(CNC(=O)c3ccc(-c4ccccc4C#N)nc3NCCc3cccc(F)c3)cn2)CC1 [N-{[6-(4-acetylpiperazinyl)(3-pyridyl)]methyl}(6-(2-cyanophenyl)-2-{[2-(3-fluorophenyl)ethyl]amino}(3-pyridyl))carboxamide] | 7750
26 | Cn1cc(-c2ccc(C(=O)NCc3cccc(CN)n3)c(NCCc3cccc(F)c3)n2)cn1 [N-{[6-(aminomethyl)(2-pyridyl)]methyl}(2-{[2-(3-fluorophenyl)ethyl]amino}-6-(1-methylpyrazol-4-yl)(3-pyridyl))carboxamide] | 136
27 | NCc1cccc(CNC(=O)c2ccc(-c3ccccc3)nc2NCCc2cccc(F)c2)n1 [N-{[6-(aminomethyl)(2-pyridyl)]methyl}(2-{[2-(3-fluorophenyl)ethyl]amino}-6-phenyl(3-pyridyl))carboxamide] | 19
28 | NCc1cccc(CNC(=O)c2ccc(-c3cn[nH]c3)nc2NCCc2cccc(F)c2)n1 [N-{[6-(aminomethyl)(2-pyridyl)]methyl}(2-{[2-(3-fluorophenyl)ethyl]amino}-6-pyrazol-4-yl(3-pyridyl))carboxamide] | 121
29 | Cn1cc(-c2nc(NCCc3cccc(F)c3)c(C(=O)NCc3cccc(CN)n3)cc2Br)cn1 [N-{[6-(aminomethyl)(2-pyridyl)]methyl}(5-bromo-2-{[2-(3-fluorophenyl)ethyl]amino}-6-(1-methylpyrazol-4-yl)(3-pyridyl))carboxamide] | 27
30 | NCc1cccc(CNC(=O)c2cc(Br)c(-c3ccccc3)nc2NCCc2cccc(F)c2)n1 [N-{[6-(aminomethyl)(2-pyridyl)]methyl}(5-bromo-2-{[2-(3-fluorophenyl)ethyl]amino}-6-phenyl(3-pyridyl))carboxamide] | 604
31 | N#Cc1ccccc1-c1ccc(C(=O)NCc2cccc(CN)n2)c(NCCc2cccc(F)c2)n1 [N-{[6-(aminomethyl)(2-pyridyl)]methy}(6-(2-cyanophenyl)-2-{[2-(3-fluorophenyl)ethyl]amino}(3-pyridyl))carboxamide] | 9
32 | NCc1ccc(CNC(=O)c2ccc(-c3ccccc3)nc2NCCc2cccc(F)c2)cn1 [N-{[6-(aminomethyl)(3-pyridyl)]methyl}(2-{[2-(3-fluorophenyl)ethyl]amino}-6-phenyl(3-pyridyl))carboxamide] | 420
33 | CN(C)c1ccc(CNC(=O)c2ccc(-c3ccccc3C#N)nc2NCCc2cccc(F)c2)cn1 [N-{[6-(dimethylamino)(3-pyridyl)]methyl}(6-(2-cyanophenyl)-2-{[2-(3-fluorophenyl)ethyl]amino}(3-pyridyl))carboxamide] | 30200
34 | N#Cc1ccccc1-c1ccc(C(=O)NC[C@H]2CCN2C(=O)C(O)CO)c(NCCc2cccc(F)c2)n1 (stereo partly drawn) [N-{[(2R)-1-(2,3-dihydroxypropanoyl)azetidin-2-yl]methyl}(6-(2-cyanophenyl)-2-{[2-(3-fluorophenyl)ethyl]amino}(3-pyridyl))carboxamide] | 51
